Results published in ChEMBL document CHEMBL3244346, “Synthesis of spiro[isobenzofuran-1(3H),4'-piperidines] as potential central nervous system agents. 4. Central nervous system depressants” (J Med Chem, 1978).
Activity calls are given as the source filed them. The calls are words filed in the database; no cut-off is given here.

Assays:
Rattus norvegicus [1] = assay: Neuroleptic activity in ip dosed Long-Evans rat assessed as increase in escape failure; assay type: functional
Rattus norvegicus [2] = assay: Neuroleptic activity in po dosed Sprague-Dawley rat assessed as inhibition of Sidman avoidance measured for 4 to 6 hrs; assay type: functional
Rattus norvegicus [3] = assay: Neuroleptic activity in ip dosed Sprague-Dawley rat assessed as inhibition of Sidman avoidance measured for 4 to 6 hrs; assay type: functional
Canis familiaris [4] = assay: Non-specific toxicity in po dosed Beagle dog assessed as inhibition of apomorphine hydrochloride-induced emesis; assay type: organism-based, Canis lupus familiaris; conditions: in vivo
Rattus norvegicus [5] = assay: Neuroleptic activity in ip dosed Long-Evans rat assessed as inhibition of pole-climb avoidance; assay type: functional
Rattus norvegicus [6] = assay: Non-specific toxicity in ip dosed Wistar rat assessed as inhibition of amphetamine-induced circling administered 60 mins prior to amphetamine challenge; assay type: organism-based; conditions: in vivo, 1 h
Rattus norvegicus [7] = assay: Non-specific toxicity in ip dosed Wistar rat assessed as inhibition of d-amphetamine sulfate-induced stereotypy administered 1 hr prior to d-amphetamine sulfate challenge measured after 55 to 65 mins; assay type: organism-based; conditions: in vivo
Rattus norvegicus [8] = assay: Neuroleptic activity in Sprague-Dawley rat assessed as inhibition of Sidman avoidance at 20 mg/kg, ip relative to control; assay type: functional; conditions: route intraperitoneal
Rattus norvegicus [9] = assay: Increase in amphetamine-induced circling in Wistar rat at 5 mg/kg, ip administered 60 mins prior to amphetamine challenge; assay type: functional; conditions: route intraperitoneal
Rattus norvegicus [10] = assay: Neuroleptic activity in Long-Evans rat assessed as inhibition of pole-climb avoidance at 5 mg/kg, ip relative to control; assay type: functional; conditions: route intraperitoneal
Canis familiaris [11] = assay: Ratio of compound ED50 to haloperidol ED50 for non-specific toxicity in po dosed Beagle dog assessed as inhibition of apomorphine hydrochloride-induced emesis; assay type: organism-based, Canis lupus familiaris; conditions: in vivo
Rattus norvegicus [12] = assay: Neuroleptic activity in po dosed Long-Evans rat assessed as increase in escape failure; assay type: functional
Squirrel monkey [13] = assay: Neuroleptic activity in squirrel monkey assessed as inhibition of Sidman avoidance at 10 mg/kg, po measured for 4 hrs; assay type: functional; conditions: Saimiri sciureus, in Primates
Squirrel monkey [14] = assay: Neuroleptic activity in squirrel monkey assessed as inhibition of Sidman avoidance at 20 mg/kg, po measured for 4 hrs; assay type: functional; conditions: Saimiri sciureus, in Primates
Rattus norvegicus [15] = assay: Non-specific toxicity in Wistar rat assessed as inhibition of apomorphine hydrochloride-induced stereotypy at 25 mg/kg, sc administered 1 hr prior to apomorphine hydrochloride challenge measured after 5 to 20 mins; assay type: organism-based; set-up: dose 25 mg/kg, route subcutaneous; conditions: in vivo
Squirrel monkey [16] = assay: Neuroleptic activity in squirrel monkey assessed as inhibition of Sidman avoidance at 20 mg/kg, po measured for 4 hrs in presence of anticholinergic agent benztropine; assay type: functional, organism-based; set-up: dose 20 mg/kg; conditions: Saimiri sciureus
Squirrel monkey [17] = assay: Neuroleptic activity in squirrel monkey assessed as inhibition of Sidman avoidance at 5 mg/kg, po measured for 4 hrs; assay type: functional; conditions: Saimiri sciureus, in Primates
Rattus norvegicus [18] = assay: Neuroleptic activity in po dosed Long-Evans rat assessed as inhibition of pole-climb avoidance; assay type: functional
Squirrel monkey [19] = assay: Neuroleptic activity in squirrel monkey assessed as inhibition of Sidman avoidance at 2.5 mg/kg, po measured for 4 hrs; assay type: functional; conditions: Saimiri sciureus, in Primates
Canis familiaris [20] = assay: Non-specific toxicity in Beagle dog assessed as inhibition of apomorphine hydrochloride-induced emesis at 0.5 mg/kg, po; assay type: organism-based; set-up: dose 0.5 mg/kg, route oral; conditions: Canis lupus familiaris
Rattus norvegicus [21] = species on record: Rattus norvegicus; assay: animal or person; conditions: Sprague-Dawley, po, read-out: INH
Description: Neuroleptic activity in Sprague-Dawley rat assessed as inhibition of Sidman avoidance at 1.25 mg/kg, po relative to control

Rattus norvegicus [22] = assay: Non-specific toxicity in sc dosed Wistar rat assessed as inhibition of apomorphine hydrochloride-induced stereotypy administered 1 hr prior to apomorphine hydrochloride challenge measured after 5 to 20 mins; assay type: organism-based; conditions: in vivo
Squirrel monkey [23] = assay: Neuroleptic activity in squirrel monkey assessed as inhibition of Sidman avoidance at 0.75 mg/kg, po measured for 4 hrs; assay type: functional; conditions: Saimiri sciureus, in Primates
Squirrel monkey [24] = assay: Neuroleptic activity in squirrel monkey assessed as inhibition of Sidman avoidance at 1 mg/kg, po measured for 4 hrs; assay type: functional; conditions: Saimiri sciureus, in Primates

Question: How did the ED50 (Rattus norvegicus [1]) turn out when `O=C(CCCN1CCC2(CC1)OC(c1ccccc1)c1ccccc12)c1ccc(F)cc1` (configuration not stated) was run?
Answer: > 40 mg/kg

Question: And the ED50 (Rattus norvegicus [2])?
Answer: 4.8 mg/kg

Question: What about the ED50 (Rattus norvegicus [3]) of the same compound?
Answer: 6.2 mg/kg

Question: And the ED50 (Canis familiaris [4])?
Answer: 0.15 mg/kg

Question: And the ED50 (Rattus norvegicus [5])?
Answer: 8.6 mg/kg

Question: What about the ED50 (Rattus norvegicus [6]) of the same compound?
Answer: 2.6 mg/kg

Question: For `CSc1ccc2c(c1)N(CCC1CCCCN1C)c1ccccc1S2` (configuration not stated) [THIORIDAZINE], which ED50 (Rattus norvegicus [7]) is on record?
Answer: 15.8 mg/kg

Question: And the ED50 (Rattus norvegicus [1])?
Answer: > 60 mg/kg

Question: And the inhibition in vivo at 20 mg/kg (Rattus norvegicus [8])?
Answer: 15%

Question: And the ED50 (Rattus norvegicus [5])?
Answer: 13.8 mg/kg

Question: And the ED50 (Rattus norvegicus [6])?
Answer: 13.3 mg/kg

Question: `O=C(CCCN1CCC2(CC1)OC(c1ccc(Cl)cc1)c1ccccc12)c1ccc(F)cc1` (configuration not stated) was tested. Which ED50 (Rattus norvegicus [3]) did it give?
Answer: > 10 mg/kg

Question: And the Activity (Rattus norvegicus [9])?
Answer: 47%

Question: What about the ED50 (Canis familiaris [4]) of the same compound?
Answer: > 10 mg/kg

Question: What about the ED50 (Rattus norvegicus [5]) of the same compound?
Answer: > 20 mg/kg

Question: How did the inhibition in vivo at 5 mg/kg (Rattus norvegicus [10]) turn out when `O=C(CCCN1CCC2(CC1)OC(c1ccccc1)c1ccc(Cl)cc12)c1ccc(F)cc1` (configuration not stated) was run?
Answer: 47%

Question: What about the ED50 (Rattus norvegicus [3]) of the same compound?
Answer: 2.3 mg/kg

Question: And the ED50 (Canis familiaris [4])?
Answer: 0.05 mg/kg

Question: And the ED50 (Rattus norvegicus [6])?
Answer: 3.5 mg/kg

Question: For `O=C(CCCN1CCC2(CC1)OC(c1ccc(F)cc1)c1ccccc12)c1ccc(F)cc1` (configuration not stated), which “Ratio ED50” value (Canis familiaris [11]) is on record?
Answer: 10

Question: And the ED50 (Rattus norvegicus [7])?
Answer: 11.8 mg/kg

Question: And the ED50 (Rattus norvegicus [12])?
Answer: 16.2 mg/kg

Question: What about the inhibition in vivo at 10 mg/kg (Squirrel monkey [13]) of the same compound?
Answer: 17%

Question: What about the inhibition in vivo at 20 mg/kg (Squirrel monkey [14]) of the same compound?
Answer: 90%

Question: And the Activity (Rattus norvegicus [15])?
Answer: Non-toxic

Question: What about the ED50 (Rattus norvegicus [2]) of the same compound?
Answer: 3.7 mg/kg

Question: What about the inhibition (Squirrel monkey [16]) of the same compound?
Answer: inactive

Question: What about the ED50 (Canis familiaris [4]) of the same compound?
Answer: > 5 mg/kg

Question: And the inhibition in vivo at 5 mg/kg (Squirrel monkey [17])?
Answer: 21%

Question: And the ED50 (Rattus norvegicus [18])?
Answer: 4.3 mg/kg

Question: And the ED50 (Rattus norvegicus [6])?
Answer: 11.9 mg/kg

Question: `COc1ccc2c(c1)C(c1ccccc1)OC21CCN(CCCC(=O)c2ccc(F)cc2)CC1` (configuration not stated) was tested. Which “Ratio ED50” value (Canis familiaris [11]) did it give?
Answer: 10

Question: And the ED50 (Rattus norvegicus [7])?
Answer: 6.97 mg/kg

Question: What about the ED50 (Rattus norvegicus [1]) of the same compound?
Answer: > 40 mg/kg

Question: What about the Activity (Rattus norvegicus [15]) of the same compound?
Answer: Non-toxic

Question: And the ED50 (Rattus norvegicus [3])?
Answer: 9.5 mg/kg

Question: And the inhibition in vivo at 2.5 mg/kg (Squirrel monkey [19])?
Answer: 29%

Question: What about the ED50 (Canis familiaris [4]) of the same compound?
Answer: > 1 mg/kg

Question: And the ED50 (Rattus norvegicus [5])?
Answer: 9.8 mg/kg

Question: What about the ED50 (Rattus norvegicus [6]) of the same compound?
Answer: 9.9 mg/kg

Question: Which “Ratio ED50” value (Canis familiaris [11]) does the source give for `O=C(CCCN1CCC2(CC1)OC(c1ccc(F)cc1)c1ccc(F)cc12)c1ccc(F)cc1` (configuration not stated) here?
Answer: 10

Question: And the ED50 (Rattus norvegicus [1])?
Answer: > 40 mg/kg

Question: What about the inhibition at 0.5 mg/kg (Canis familiaris [20]) of the same compound?
Answer: 50%

Question: And the ED50 (Rattus norvegicus [2])?
Answer: 2.2 mg/kg

Question: And the ED50 (Rattus norvegicus [5])?
Answer: 18.6 mg/kg

Question: What about the ED50 (Rattus norvegicus [6]) of the same compound?
Answer: 9.7 mg/kg

Question: Which ED50 (Rattus norvegicus [1]) does the source give for `CCCC(C)C1(CC)C(=O)N=C([O-])NC1=O.[Na+]` (configuration not stated) [PENTOBARBITAL SODIUM] here?
Answer: 24.1 mg/kg

Question: And the ED50 (Rattus norvegicus [5])?
Answer: 23.7 mg/kg

Question: Which inhibition in vivo at 1.25 mg/kg (Rattus norvegicus [21]) does the source give for `O=C(CCCN1CCC(O)(c2ccc(Cl)cc2)CC1)c1ccc(F)cc1` [HALOPERIDOL] here?
Answer: 50%

Question: And the ED50 (Rattus norvegicus [7])?
Answer: 0.21 mg/kg

Question: What about the ED50 (Rattus norvegicus [1]) of the same compound?
Answer: 7.3 mg/kg

Question: And the ED50 (Rattus norvegicus [3])?
Answer: 0.35 mg/kg

Question: What about the ED50 (Canis familiaris [4]) of the same compound?
Answer: 0.06 mg/kg

Question: What about the ED50 (Rattus norvegicus [22]) of the same compound?
Answer: 0.2 mg/kg

Question: And the inhibition in vivo at 0.75 mg/kg (Squirrel monkey [23])?
Answer: 2%

Question: What about the inhibition in vivo at 1 mg/kg (Squirrel monkey [24]) of the same compound?
Answer: 30%

Question: And the ED50 (Rattus norvegicus [5])?
Answer: 0.53 mg/kg

Question: And the ED50 (Rattus norvegicus [6])?
Answer: 0.1 mg/kg

Question: Which results are given for `O=C(CCCN1CCC2(CC1)OC(c1ccccc1)c1ccc(F)cc12)c1ccc(F)cc1` (configuration not stated)?
Answer: ED50 (Rattus norvegicus [1]): 31.1 mg/kg; ED50 (Rattus norvegicus [3]): 2.7 mg/kg; ED50 (Canis familiaris [4]): 0.047 mg/kg; ED50 (Rattus norvegicus [5]): 0.95 mg/kg; ED50 (Rattus norvegicus [6]): 4.6 mg/kg

Question: Which inhibition in vivo at 10 mg/kg (Squirrel monkey [13]) does the source give for `COc1ccc2c(c1)C1(CCN(CCCC(=O)c3ccc(F)cc3)CC1)OC2c1ccccc1` (configuration not stated) here?
Answer: 77%

Question: And the ED50 (Rattus norvegicus [2])?
Answer: > 10 mg/kg

Question: `CN(C)CCCN1c2ccccc2Sc2ccc(Cl)cc21` [CHLORPROMAZINE] was tested. Which ED50 (Rattus norvegicus [7]) did it give?
Answer: 1.7 mg/kg

Question: And the ED50 (Rattus norvegicus [1])?
Answer: 9 mg/kg

Question: What about the ED50 (Rattus norvegicus [2]) of the same compound?
Answer: 7.5 mg/kg

Question: And the ED50 (Rattus norvegicus [3])?
Answer: 2.3 mg/kg

Question: And the inhibition in vivo at 2.5 mg/kg (Squirrel monkey [19])?
Answer: 11%

Question: What about the ED50 (Canis familiaris [4]) of the same compound?
Answer: 12.8 mg/kg

Question: What about the ED50 (Rattus norvegicus [22]) of the same compound?
Answer: 5.4 mg/kg

Question: And the inhibition in vivo at 5 mg/kg (Squirrel monkey [17])?
Answer: 54%

Question: And the ED50 (Rattus norvegicus [5])?
Answer: 5.2 mg/kg

Question: What about the ED50 (Rattus norvegicus [6]) of the same compound?
Answer: 2.2 mg/kg

Question: For `CN1C(=O)CN=C(c2ccccc2)c2cc(Cl)ccc21` [DIAZEPAM], which ED50 (Rattus norvegicus [1]) is on record?
Answer: 24.5 mg/kg

Question: What about the ED50 (Rattus norvegicus [5]) of the same compound?
Answer: 13.4 mg/kg

Question: With `COc1ccc(C2OC3(CCN(CCCC(=O)c4ccc(F)cc4)CC3)c3ccccc32)cc1` (configuration not stated) as the compound, how does the ED50 (Rattus norvegicus [1]) read?
Answer: > 40 mg/kg

Question: And the ED50 (Rattus norvegicus [2])?
Answer: 3 mg/kg

Question: What about the ED50 (Canis familiaris [4]) of the same compound?
Answer: 0.16 mg/kg

Question: And the ED50 (Rattus norvegicus [5])?
Answer: 17.2 mg/kg

Question: And the ED50 (Rattus norvegicus [6])?
Answer: 10.2 mg/kg
